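Tested at 5 concentrations; 48 h exposure; 96-well plates; endpoints linearly interpolated, else capped at highest concentration. Abbreviation: GI50, concentration required for 50% inhibition of growth.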 Active and inactive are the calls of the source. Cut-off read from the data, not from the text of the source: active = GI50 up to about 1.1 µM and inactive = higher.
Tests used:
Test in all cases: NCI-60 cell line screen, 48 h
786-0 = test system: 786-0
A498 = test system: A498
A549 = test system: A549
ACHN = test system: ACHN
CAKI-1 = test system: CAKI-1
CCRF-CEM = test system: CCRF-CEM
COLO 205 = test system: COLO 205
DLD-1 = test system: DLD-1
DMS-114 = test system: DMS-114
DMS-273 = test system: DMS-273
EKVX = test system: EKVX
HCC 2998 = test system: HCC 2998
HCT-116 = test system: HCT-116
HCT-15 = test system: HCT-15
HL-60 = test system: HL-60
HOP-18 = test system: HOP-18
HOP-62 = test system: HOP-62
HT-29 = test system: HT-29
IGROV-1 = test system: IGROV-1
K562 = test system: K562
KM-20L2 = test system: KM-20L2
KM12 = test system: KM12
LOX IMVI = test system: LOX IMVI
LXFL 529 = test system: LXFL 529
M14 = test system: M14
M19-MEL = test system: M19-MEL
MOLT-4 = test system: MOLT-4
Malme-3M = test system: Malme-3M
NCI-H226 = test system: NCI-H226
NCI-H23 = test system: NCI-H23
NCI-H460 = test system: NCI-H460
NCI-H522 = test system: NCI-H522
OVCAR-3 = test system: OVCAR-3
OVCAR-4 = test system: OVCAR-4
OVCAR-5 = test system: OVCAR-5
OVCAR-8 = test system: OVCAR-8
RPMI-8226 = test system: RPMI-8226
RXF 393 = test system: RXF 393
SF-268 = test system: SF-268
SF-295 = test system: SF-295
SF-539 = test system: SF-539
SK-MEL-28 = test system: SK-MEL-28
SK-MEL-2 = test system: SK-MEL-2
SK-MEL-5 = test system: SK-MEL-5
SK-OV-3 = test system: SK-OV-3
SN12C = test system: SN12C
SNB-19 = test system: SNB-19
SNB-75 = test system: SNB-75
SNB-78 = test system: SNB-78
SW-620 = test system: SW-620
TK-10 = test system: TK-10
U-251 = test system: U-251
UACC-257 = test system: UACC-257
UACC-62 = test system: UACC-62
UO-31 = test system: UO-31
HOP-92 = test system: HOP-92
SR = test system: SR
XF498 = test system: XF498

With `O=C1c2ccccc2C2(O)Nc3c(ccc4ccccc34)C12O` (stereo unspecified) the GI50 (786-0) was > 100 µM (inactive), the GI50 (A498) was > 100 µM (inactive) and the GI50 (A549) was > 100 µM (inactive). The GI50 (ACHN) was > 100 µM (inactive), the GI50 (CAKI-1) was > 100 µM (inactive) and the GI50 (CCRF-CEM) was 55.3 µM (inactive). For the same molecule, the GI50 (COLO 205) was > 100 µM (inactive), the GI50 (DLD-1) was > 100 µM (inactive) and the GI50 (DMS-114) was 60 µM (inactive). The GI50 (DMS-273) was > 100 µM (inactive), the GI50 (EKVX) was > 100 µM (inactive) and the GI50 (HCC 2998) was > 100 µM (inactive). The GI50 (HCT-116) was > 100 µM (inactive), the GI50 (HCT-15) was over 100 µM and the GI50 (HL-60) was 97.1 µM (inactive). The GI50 (HOP-18) was > 100 µM (inactive), the GI50 (HOP-62) was > 100 µM (inactive) and the GI50 (HT-29) was > 100 µM (inactive). The GI50 (IGROV-1) was > 100 µM (inactive), the GI50 (K562) was 61.4 µM (inactive) and the GI50 (KM-20L2) was > 100 µM (inactive). For the same molecule, the GI50 (KM12) was 87.1 µM (inactive), the GI50 (LOX IMVI) was > 100 µM (inactive) and the GI50 (LXFL 529) was 67.8 µM (inactive). For the same molecule, the GI50 (M14) was > 100 µM (inactive), the GI50 (M19-MEL) was > 100 µM (inactive) and the GI50 (MOLT-4) was 39 µM (inactive). The GI50 (Malme-3M) was > 100 µM (inactive), the GI50 (NCI-H226) was > 100 µM (inactive) and the GI50 (NCI-H23) was > 100 µM (inactive). For the same molecule, the GI50 (NCI-H460) was > 100 µM (inactive), the GI50 (NCI-H522) was 95.5 µM (inactive) and the GI50 (OVCAR-3) was 99.5 µM (inactive). The GI50 (OVCAR-4) was > 100 µM (inactive), the GI50 (OVCAR-5) was > 100 µM (inactive) and the GI50 (OVCAR-8) was > 100 µM (inactive). For the same molecule, the GI50 (RPMI-8226) was > 100 µM (inactive), the GI50 (RXF 393) was > 100 µM (inactive) and the GI50 (SF-268) was > 100 µM (inactive). For the same molecule, the GI50 (SF-295) was > 100 µM (inactive), the GI50 (SF-539) was > 100 µM (inactive) and the GI50 (SK-MEL-28) was > 100 µM (inactive). For the same molecule, the GI50 (SK-MEL-2) was > 100 µM (inactive), the GI50 (SK-MEL-5) was 72.8 µM (inactive) and the GI50 (SK-OV-3) was > 100 µM (inactive). For the same molecule, the GI50 (SN12C) was > 100 µM (inactive), the GI50 (SNB-19) was 85.3 µM (inactive) and the GI50 (SNB-75) was > 100 µM (inactive). For the same molecule, the GI50 (SNB-78) was > 100 µM (inactive), the GI50 (SW-620) was > 100 µM (inactive) and the GI50 (TK-10) was > 100 µM (inactive). The GI50 (U-251) was > 100 µM (inactive), the GI50 (UACC-257) was > 100 µM (inactive) and the GI50 (UACC-62) was > 100 µM (inactive). For the same molecule, the GI50 (UO-31) was 95.5 µM (inactive).
For `CCOc1cc2c(C(=O)CC)c(O)ccc2o1`, the GI50 (786-0) was > 100 µM (inactive), the GI50 (A498) was > 52.7 µM (inactive) and the GI50 (A549) was > 100 µM (inactive). The GI50 (ACHN) was > 100 µM (inactive), the GI50 (CAKI-1) was > 100 µM (inactive) and the GI50 (CCRF-CEM) was 24.9 µM (inactive). The GI50 (COLO 205) was > 67.9 µM (inactive), the GI50 (DMS-114) was > 54.5 µM (inactive) and the GI50 (DMS-273) was > 100 µM (inactive). The GI50 (EKVX) was > 100 µM (inactive), the GI50 (HCC 2998) was > 100 µM (inactive) and the GI50 (HCT-116) was > 48 µM (inactive). For the same molecule, the GI50 (HCT-15) was over 100 µM, the GI50 (HL-60) was 12.9 µM (inactive) and the GI50 (HOP-62) was > 100 µM (inactive). For the same molecule, the GI50 (HOP-92) was > 100 µM (inactive), the GI50 (HT-29) was 39 µM (inactive) and the GI50 (IGROV-1) was > 100 µM (inactive). The GI50 (K562) was 28.8 µM (inactive), the GI50 (KM-20L2) was > 100 µM (inactive) and the GI50 (KM12) was > 100 µM (inactive). For the same molecule, the GI50 (LOX IMVI) was > 100 µM (inactive), the GI50 (LXFL 529) was 64.9 µM (inactive) and the GI50 (M14) was > 55 µM (inactive). For the same molecule, the GI50 (M19-MEL) was 31.1 µM (inactive), the GI50 (MOLT-4) was 58.1 µM (inactive) and the GI50 (Malme-3M) was > 100 µM (inactive). The GI50 (NCI-H226) was > 100 µM (inactive), the GI50 (NCI-H23) was > 100 µM (inactive) and the GI50 (NCI-H460) was > 100 µM (inactive). For the same molecule, the GI50 (NCI-H522) was > 100 µM (inactive), the GI50 (OVCAR-3) was > 100 µM (inactive) and the GI50 (OVCAR-4) was > 40.8 µM (inactive). For the same molecule, the GI50 (OVCAR-5) was > 100 µM (inactive), the GI50 (OVCAR-8) was > 79.6 µM (inactive) and the GI50 (RPMI-8226) was > 58.1 µM (inactive). The GI50 (RXF 393) was > 45.1 µM (inactive), the GI50 (SF-268) was > 100 µM (inactive) and the GI50 (SF-295) was > 100 µM (inactive). The GI50 (SF-539) was > 100 µM (inactive), the GI50 (SK-MEL-28) was > 35.3 µM (inactive) and the GI50 (SK-MEL-2) was > 100 µM (inactive). For the same molecule, the GI50 (SK-MEL-5) was > 39.3 µM (inactive), the GI50 (SK-OV-3) was > 48.1 µM (inactive) and the GI50 (SN12C) was > 100 µM (inactive). For the same molecule, the GI50 (SNB-19) was > 100 µM (inactive), the GI50 (SNB-75) was > 91 µM (inactive) and the GI50 (SNB-78) was > 96.6 µM (inactive). The GI50 (SR) was 33.7 µM (inactive), the GI50 (SW-620) was 57.3 µM (inactive) and the GI50 (TK-10) was > 79.8 µM (inactive). The GI50 (U-251) was > 100 µM (inactive), the GI50 (UACC-257) was > 100 µM (inactive) and the GI50 (UACC-62) was > 37.6 µM (inactive). For the same molecule, the GI50 (UO-31) was > 100 µM (inactive) and the GI50 (XF498) was > 49.9 µM (inactive).

Reference: ChEMBL document CHEMBL1201862, “PubChem BioAssay data set” (2004)
